# Results as given in US12419304B2, “Aryl sulfide comprising benzylamine, synthesis method and application thereof” (Shandong Kangqiao Bio-Technology Co., Ltd., priority 2019, dated 2025).
# Like-named read-outs stand apart in the source and are kept apart here.
# System: Tetranychus cinnabarinus
# Test: Activity test of Tetranychus cinnabarinus (spray on inoculated bean seedlings, mortality after 72 hours)
# Assay type: in vivo
# Conditions: for pest or weed control at 6.25 ppm: 6.25 ppm (6.25 mg/L); for pest or weed control at 6.25 ppm / pest or weed control at 25 ppm / pest or weed control at 100 ppm: whole plant sprayed, 72 hours, read-out: lethal rate against mites; for pest or weed control at 25 ppm: 25 ppm (25 mg/L); for pest or weed control at 100 ppm: 100 ppm (100 mg/L)
# Procedure: Activity Test of Tetranychus cinnabarinus
# The compound under test was dissolved in acetone and diluted to desired concentration with 0.1% Tween 80 solution with acetone content not exceeding 5%.
# One true leaf was removed from the bean seedlings having two true leaves. Tanyanychus cinarinus was inoculated and the cardinal number thereof investigated. The whole plant was sprayed with a handheld sprayer, and each treatment was repeated for 3 times. After treatment, the bean seedlings were cultured in a constant temperature room. 72 hours later, the number of live mites was investigated and the mortality rate was calculated. The number of Tetranychus cinnabarinus was 100-200 per inoculation. Mortality=(number of inoculated mites−number of live mites after treatment)[…]×100%.
# [1] = Concentration 3.12 ppm, acaricidal parallel test with bifenazate and cyflumetofen, read-out: Mortality %
Structure (SMILES),pest or weed control at 6.25 ppm [%],pest or weed control at 25 ppm [%],pest or weed control at 100 ppm [%],mortality at 3.12 ppm [1] [%],mortality at 3.12 ppm [%]
"COC(=O)c1ccccc1CNc1cc(SCC(F)(F)F)c(Cl)cc1F [Compound 1202, 2-((((4-chloro-2-fluoro-5-((2,2,2-trifluoroethyl)thio)phenyl)amino)methyl) benzoate]",> 90,> 90,> 90,97,–
Cc1cc(F)c(NCc2ccccc2C#N)cc1SCC(F)(F)F [Compound 33],–,–,> 90,–,–
COC(=O)c1ccccc1CNc1cc(SCC(F)(F)F)c(C)cc1F [Compound 53],> 90,> 90,> 90,99,–
Cc1cc(F)c(NCc2ccc(Cl)c(Cl)c2)cc1SCC(F)(F)F [Compound 247],–,–,> 90,–,–
"COCCOC(=O)C(C#N)(C(=O)c1ccccc1C(F)(F)F)c1ccc(C(C)(C)C)cc1 (centres unmarked) [Cyflumetofen, cyflumetofen, reference compound]",–,–,–,–,72
COC(=O)c1ccccc1CNc1cc([S+]([O-])CC(F)(F)F)c(Cl)cc1F (centres unmarked) [Compound 1203],> 90,> 90,> 90,98,–
COC(=O)c1cc(F)ccc1CNc1cc([S+]([O-])CC(F)(F)F)c(Cl)cc1F (centres unmarked) [Compound 1166],> 90,> 90,> 90,98,–
COC(=O)c1cc(F)ccc1CNc1cc([S+]([O-])CC(F)(F)F)c(C)cc1F (centres unmarked) [Compound 304],> 90,> 90,> 90,98,–
COC(=O)c1ccccc1CNc1cc([S+]([O-])CC(F)(F)F)c(C)cc1F (centres unmarked) [Compound 54],> 90,> 90,> 90,100,–
COC(=O)c1cc(F)ccc1CNc1cc(SCC(F)(F)F)c(Cl)cc1F [Compound 1165],> 90,> 90,> 90,99,–
"Cc1cc(F)c(NCc2cccc(F)c2)cc1SCC(F)(F)F [Compound 229, 2-fluoro-N-(3-fluorobenzyl)-4-methyl-5-((2,2,2-trifluoroethyl)thio) aniline]",–,–,> 90,–,–
"Cc1cc(F)c(NCc2ccc(Cl)c(F)c2)cc1SCC(F)(F)F [Compound 249, N-(4-chloro-3-fluorobenzyl)-2-fluoro-4-methyl-5-((2,2,2-trifluoroethyl)thio) aniline]",–,–,> 90,–,–
"COC(=O)c1cc(F)ccc1CNc1cc(SCC(F)(F)F)c(C)cc1F [Compound 303, 5-Fluoro-2-((((2-Fluoro-4-methyl-5-(2,2,2-trifluoroethyl)thio)phenyl)amino)methyl) benzoate]",> 90,> 90,> 90,99,–
"COc1ccc(-c2ccccc2)cc1NNC(=O)OC(C)C [Bifenazate, bifenazate, reference compound]",–,–,–,–,85
